Literature values, collected in patent US9072718B2, “Burdock fruit extract containing arctigenin and method for producing same” (Kracie Pharma, Ltd., priority 2010, dated 2015).

Columns and labels:
[1] = stated without a test
[2] = tested on: pancreas cancer cell line PANC-1; details: PANC-1, undernutrition condition; Non-patent document 1

SMILES | solubility in water [1] | effect on viability of tumor cells in the undernutrition condition [2]
COc1cc(C[C@H]2C(=O)OC[C@@H]2Cc2ccc(OC)c(OC)c2)ccc1O [arctigenin] | hardly soluble in water | effective
COc1ccc(C[C@H]2COC(=O)[C@@H]2Cc2ccc(O[C@@H]3O[C@H](CO)[C@@H](O)[C@H](O)[C@H]3O)c(OC)c2)cc1OC [arctiin] | hardly soluble in water | 
